The compounds below were run on IL-5 production (assay: In vitro inhibition of IL-5 production in human blood (phytohemagglutinin-stimulated whole blood, ELISA)). Conditions: test dose 1×10^−6 M, 48 hours.
Format: cell-based
Method: In Vitro Inhibition of IL-5 Production in Human Blood
Human Whole Blood Stimulation
Peripheral blood from healthy male donors was drawn into heparinized syringes (12.5 U heparin/ml). Blood samples were three-fold diluted in RMPI 1640 medium (Life Technologies, Belgium) supplemented with 2 mM L-glutamine, 100 U/ml penicillin and 100 μg/ml streptomycin, and 300 μl fractions were distributed in 24-well multidisc plates. Blood samples were preincubated (60 minutes at 37° C.) in a humidified 6% CO2-atmosphere with 100 μl of drug solvent (final concentration 0.02% dimethylsulfoxide in RPMI 1640) or with 100 μl of an appropriate dose of test compound before being stimulated by the addition of 100 μl of phytohemagglutinin HA17 (Murex, UK) at a final concentration of 2 μg/ml. After 48 hours, cell-free supernatant fluids were collected by centrifugation and stored at −70° C. until tested for the presence of IL-5.
IL-5 measurements were conducted as described in Van Wauwe et al. (1996, Inflamm Res, 45, 357-363) on page 358 using ELISA.
Table 9 lists the percentage inhibition of IL-5 production (column “% inh”) at a test dose of 1×10^−6 M, or in case the percentage inhibition is marked with an “*” 1×10^−5 M, the compounds of the present invention.
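Further: values marked with an asterisk were tested at 10 µM and unmarked values at 1 µM.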

SMILES	% inh. (percentage inhibition of IL-5 production) [%]
O=c1cnn(-c2cc(Cl)c(C(c3ccc(Cl)cc3)c3nc(-c4ccccc4)c(CN4CCC(N5CCCCC5)CC4)s3)c(Cl)c2)c(=O)[nH]1 (racemic) [Comp 321]	92
O=c1cnn(-c2cc(Cl)c(C(c3ccc(Cl)cc3)c3ccccn3)c(Cl)c2)c(=O)[nH]1 (stereo not shown) [Comp 115]	71
O=c1cnn(-c2cc(Cl)c(C(Sc3ncccn3)c3ccc(Cl)cc3)c(Cl)c2)c(=O)[nH]1 (single isomer, unassigned) [Compound 347]	8
CC(c1ccc(Cl)cc1)(c1nc(-c2ccccc2)no1)c1ccc(-n2ncc(=O)[nH]c2=O)cc1Cl (racemic) [Comp 106]	77
O=c1cnn(-c2cc(Cl)c(C(c3ccc(Cl)cc3)c3nc(-c4ccccc4Br)cs3)c(Cl)c2)c(=O)[nH]1 (racemic) [Comp 244]	95
Cn1c(-c2ccccc2)nnc1C(c1ccc(Cl)cc1)c1c(Cl)cc(-n2ncc(=O)[nH]c2=O)cc1Cl.O (stereo not shown) [Comp 428]	66
O=c1cnn(-c2ccc(C(SCc3ccco3)c3ccc(Cl)cc3)c(Cl)c2)c(=O)[nH]1 (racemic) [Compound 64]	64
Cc1cc(C(c2nc(-c3ccccc3)cs2)c2c(Cl)cc(-n3ncc(=O)[nH]c3=O)cc2Cl)ccc1Cl (racemic) [Comp 269]	90
O=c1cnn(-c2ccc(C(Sc3cccc[n+]3[O-])c3ccc(Cl)cc3)c(Cl)c2)c(=O)[nH]1 (racemic) [Compound 73]	21
CCOC(=O)N1CCC(NC(=S)Nc2cccc(-c3nnc(C(c4ccc(Cl)cc4)c4c(Cl)cc(-n5ncc(=O)[nH]c5=O)cc4Cl)o3)c2)CC1 (racemic) [Compound 220]	25
CN(CCc1ccccc1)Cc1sc(C(c2ccc(Cl)cc2)c2c(Cl)cc(-n3ncc(=O)[nH]c3=O)cc2Cl)nc1-c1ccccc1 (racemic) [Comp 332]	86
CCOC(=O)c1sc(C(c2ccc(Cl)cc2)c2c(Cl)cc(-n3ncc(=O)[nH]c3=O)cc2Cl)nc1-c1ccccc1F (racemic) [Comp 285]	89
O=c1cnn(-c2cc(Cl)c(C(c3ccc(Cl)cc3)c3nc(-c4ccccc4Cl)cs3)c(Cl)c2)c(=O)[nH]1 (racemic) [Comp 32]	90
CN(C)CCNC(=O)c1sc(C(c2ccc(Cl)cc2)c2c(Cl)cc(-n3ncc(=O)[nH]c3=O)cc2Cl)nc1-c1ccccc1.O (racemic) [Comp 312]	57
O=c1cnn(-c2cc(Cl)c(C(c3ccc(Cl)cc3)c3nc(-c4cc(F)ccc4F)cs3)c(Cl)c2)c(=O)[nH]1 (racemic) [Comp 290]	92
Nc1cc(O)nc(SC(c2ccc(Cl)cc2)c2ccc(-n3ncc(=O)[nH]c3=O)cc2Cl)n1 (stereo not shown) [Compound 87]	9
Cc1c(NS(N)(=O)=O)cccc1-c1nnc(C(c2ccc(Cl)cc2)c2c(Cl)cc(-n3ncc(=O)[nH]c3=O)cc2Cl)o1 (racemic) [Compound 218]	4
Cc1sc(C(c2ccc(Cl)c(C(F)(F)F)c2)c2c(Cl)cc(-n3ncc(=O)[nH]c3=O)cc2Cl)nc1-c1ccccc1 (racemic) [Comp 246]	94
COc1ccccc1-c1csc(C(c2ccc(Cl)cc2)c2c(Cl)cc(-n3ncc(=O)[nH]c3=O)cc2Cl)n1 (racemic) [Comp 263]	92
NC(c1ccc(Cl)cc1)(c1nc2ccccc2s1)c1ccc(-n2ncc(=O)[nH]c2=O)cc1Cl (stereo not shown) [Comp 416]	79
O=c1cnn(-c2ccc(C(SC3=NCCS3)c3ccc(Cl)cc3)c(Cl)c2)c(=O)[nH]1 (racemic) [Compound 78]	70
CS(=O)(=O)c1cccc(-c2nnc(C(c3ccc(Cl)cc3)c3c(Cl)cc(-n4ncc(=O)[nH]c4=O)cc3Cl)o2)c1 (racemic) [Compound 205]	80

SMILES	% inh. (percentage inhibition of IL-5 production) [%]
O=c1cnn(-c2ccc(C(c3ccc(Cl)cc3)c3nc(-c4ccccc4)no3)c(Cl)c2)c(=O)[nH]1 (racemic) [Compound 125, (±)-2-[(3-chloro-4-[(4-chlorophenyl)(3-phenyl-1,2,4-oxadiazol-5-yl)methyl]phenyl]-1,2,4-triazine-3,5(2H,4H)-dione]	52
Cc1cc(C)nc(SC(c2ccc(Cl)cc2)c2ccc(-n3ncc(=O)[nH]c3=O)cc2Cl)n1 (racemic) [Compound 66]	64
O=c1cnn(-c2ccc(C(Sc3nccs3)c3ccc(Cl)cc3)c(Cl)c2)c(=O)[nH]1 (racemic) [Compound 63]	68
O=c1cnn(-c2cc(Cl)c(C(c3ccc(Cl)cc3)c3nc(-c4ccccc4)c(COC4CCCCC4)s3)c(Cl)c2)c(=O)[nH]1 (racemic) [Comp 310]	79
CN(C)CCNC(=O)Cc1sc(C(c2ccc(Cl)cc2)c2c(Cl)cc(-n3ncc(=O)[nH]c3=O)cc2Cl)nc1-c1ccccc1 (racemic) [Comp 317]	67
O=c1cnn(-c2cc(Cl)c(C(Sc3nnc(-c4ccccc4)o3)c3ccc(Cl)c(C(F)(F)F)c3)c(Cl)c2)c(=O)[nH]1 (stereo not shown) [Compound 391]	97
O=c1cnn(-c2cc(Cl)c(C(c3ccc(Cl)cc3)c3nc(-c4cccc(Br)c4)cs3)c(Cl)c2)c(=O)[nH]1 (racemic) [Comp 250]	84
CCCc1nnc(C(c2ccc(Cl)cc2)c2c(Cl)cc(-n3ncc(=O)[nH]c3=O)cc2Cl)o1 (racemic) [Compound 164]	84
COCCNCc1sc(C(c2ccc(Cl)cc2)c2c(Cl)cc(-n3ncc(=O)[nH]c3=O)cc2Cl)nc1-c1ccccc1 (racemic) [Comp 316]	85
CCOC(=O)N1CCC(c2nnc(C(c3ccc(Cl)cc3)c3c(Cl)cc(-n4ncc(=O)[nH]c4=O)cc3Cl)o2)CC1 (racemic) [Compound 191]	19
O=c1cnn(-c2ccc(C(C3=C(c4ccccc4)SC4=NCCN43)c3ccc(Cl)cc3)c(Cl)c2)c(=O)[nH]1 (stereo not shown) [Comp 433]	53
Cc1sc(-c2cccc(F)c2)nc1C(c1ccc(Cl)cc1)c1c(Cl)cc(-n2ncc(=O)[nH]c2=O)cc1Cl (racemic) [Compound 370]	76
Cc1sc(C(C)(c2ccc(Cl)c(Cl)c2)c2c(Cl)cc(-n3ncc(=O)[nH]c3=O)cc2Cl)nc1-c1ccccc1 (racemic) [Comp 233]	84
Cc1ccc2[nH]c(SC(c3ccc(Cl)cc3)c3ccc(-n4ncc(=O)[nH]c4=O)cc3Cl)nc2c1 (racemic) [Compound 62]	30
O=C(c1ccccc1)c1sc(C(c2ccc(Cl)cc2)c2c(Cl)cc(-n3ncc(=O)[nH]c3=O)cc2Cl)nc1-c1ccccc1 (racemic) [Comp 273]	77
O=c1cnn(-c2cc(Cl)c(C(Sc3nc4ccccc4[nH]3)c3ccc(Cl)c(C(F)(F)F)c3)c(Cl)c2)c(=O)[nH]1 (stereo not shown) [Compound 396]	28
Cc1sc(C(c2ccc(Cl)cc2)c2c(Br)cc(-n3ncc(=O)[nH]c3=O)cc2Br)nc1-c1ccccc1 (racemic) [Comp 330]	94
CCOCc1sc(C(c2ccc(Cl)cc2)c2c(Cl)cc(-n3ncc(=O)[nH]c3=O)cc2Cl)nc1-c1ccccc1 (racemic) [Comp 295]	90
Cc1cc(-n2ncc(=O)[nH]c2=O)cc(C)c1C(c1ccc(Cl)c(Cl)c1)c1nc(-c2ccccc2)c(C)s1 (racemic) [Comp 271]	88
Nc1ccnc(SC(c2ccc(Cl)cc2)c2ccc(-n3ncc(=O)[nH]c3=O)cc2Cl)n1 (racemic) [Compound 343]	66
CN(C)CCNC(c1ccc(Cl)cc1)(c1nc(-c2ccccc2)c(Cl)s1)c1ccc(-n2ncc(=O)[nH]c2=O)cc1Cl (racemic) [Comp 266]	46

Same assay, conditions: test dose 1×10^−6 M, 48 hours, read-out: % inh. (percentage inhibition of IL-5 production)

SMILES	inhibition at 1 µM [%]
[N-]=[N+]=Nc1cccc(-c2nnc(C(c3ccc(Cl)cc3)c3c(Cl)cc(-n4ncc(=O)[nH]c4=O)cc3Cl)o2)c1 (racemic) [Compound 194, (±)-2-[4-[[5-(3-azidophenyl)-1,3,4-oxadiazol-2-yl](4-chlorophenyl)methyl]-3,5-dichlorophenyl]-1,2,4-triazine-3,5(2H,4H)-dione]	83
CCNC(CSC(c1ccc(Cl)cc1)c1ccc(-n2ncc(=O)[nH]c2=O)cc1Cl)C(=O)O (racemic) [Compound 95, (±)-ethyl α-[[[(4-chlorophenyl)[2-chloro-4-(4,5-dihydro-3,5-dioxo-1,2,4-triazin-2(3H)-yl)phenyl]methyl]thio]methyl]glycine]	17
O=c1cnn(-c2cc(Cl)c(C(Nc3ncccn3)c3ccc(Cl)cc3)c(Cl)c2)c(=O)[nH]1 (racemic) [Compound 413, (±)-2-[3,5-dichloro-4-[(4-chlorophenyl)[(2-pyrimidinyl)amino]-methyl]phenyl]-1,2,4-triazine-3,5(2H,4H)-dione]	59

— patent US6867207B2, “IL-5 inhibiting 6-azauracil derivatives” (Janssen Pharmaceutica N.V., priority 1997, dated 2005)
